Test results reported in patent publication US6706663B2, “Herbicidal 3-heterocyclic substituted benzisothiazole and benzisoxazole compounds” (Wyeth, priority 2000, dated 2004).

Tests used:
[1] = system: ABUTH (Abutilon theophrasti); test: Postemergence herbicidal evaluation; format: in vivo, Medic.; settings: postemergence
In short: (§1)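 Seedlings grown about two weeks in flats, sprayed, then kept under standard greenhouse care. Rated visually 4–5 weeks after treatment on a 0–9 scale (stand, vigour, malformation, size, chlorosis, overall appearance) relative to untreated control; repeat tests averaged.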

[2] = system: AMBEL (Ambrosia artemisifolia); test: Postemergence herbicidal evaluation; format: in vivo, L.; settings: postemergence
In short: as §1

[3] = system: CASOB (Cassia obtusifolia); test: Postemergence herbicidal evaluation; format: in vivo, L.; settings: postemergence
In short: as §1

[4] = system: CHEAL (Chenopodium album); test: Postemergence herbicidal evaluation; format: in vivo, L.; settings: postemergence
In short: as §1

[5] = system: GALAP (Galium aparine); test: Postemergence herbicidal evaluation; format: in vivo; settings: postemergence
In short: as §1

[6] = system: IPOHE (Ipomoea hederacea); test: Preemergence herbicidal evaluation; format: in vivo, (L.) Jacq.; settings: rated 4-5 weeks after treatment
[7] = system: GLXMAW (Soybean, Williams); test: Preemergence herbicidal evaluation; format: in vivo, Glycine max, (L.) Merr. cv Williams; settings: rated 4-5 weeks after treatment
[8] = system: ZEAMX (Corn, Field); test: Preemergence herbicidal evaluation; format: in vivo, Zea mays, L.; settings: rated 4-5 weeks after treatment
[9] = system: CYPIR (Cyperus iria); test: Flooded paddy, preemergence weed control; format: in vivo; settings: rated 3-4 weeks after treatment, 0-9 rating scale
In short: (§2)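 Ratings of 0-9 reflect visual comparison with a control for stand, vigor, deformity, size, chlorosis and overall look. Propagules were placed in shallow silt loam (top 0.5 cm) under a continuous 1.5–3 cm flood and grown in the greenhouse.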

[10] = system: SAGPY (Sagittaria pygmaea); test: Flooded paddy, preemergence weed control; format: in vivo, L.; settings: rated 3-4 weeks after treatment, 0-9 rating scale
In short: as §2

[11] = system: ORYSAT (Rice, Tebonnet); test: Flooded paddy, post-transplant rice tolerance; format: in vivo, Oryza sativa, (L.) Tebonnet; settings: flooded paddy, post-transplant rice, rated 3-4 weeks after treatment, 0-9 rating scale
In short: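 Two ten-day-old seedlings were transplanted into silt loam, flooded and held at 1.5 to 3 cm water above the soil before herbicide treatment. Pots stayed in the greenhouse at that water level. Injury was scored visually on a 0-9 scale versus untreated control.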

[12] = preemergence, rate 0.0620 kg/ha
[13] = preemergence, rate 0.1250 kg/ha
[14] = preemergence, rate 0.2500 kg/ha

Cn1c(C(F)(F)F)cc(=O)n(-c2ccc3snc(-c4sccc4CBr)c3c2)c1=O [Compound 80, 3-[3-[3-(bromomethyl)-2-thienyl]-1,2-benzisothiazol-5-yl]-1-methyl-6-(trifluoromethyl)uracil]
ABUTH herbicidal rating ([1]; rate 0.0320 kg/ha): 6.0
ABUTH herbicidal rating ([1]; rate 0.0620 kg/ha): 9.0
AMBEL herbicidal rating ([2]; rate 0.0320 kg/ha): 7.0
AMBEL herbicidal rating ([2]; rate 0.0620 kg/ha): 9.0
CASOB herbicidal rating ([3]; rate 0.0320 kg/ha): 5.0
CASOB herbicidal rating ([3]; rate 0.0620 kg/ha): 5.0
CHEAL herbicidal rating ([4]; rate 0.0320 kg/ha): 9.0
CHEAL herbicidal rating ([4]; rate 0.0620 kg/ha): 9.0
GALAP herbicidal rating ([5]; rate 0.0320 kg/ha): 3.0
GALAP herbicidal rating ([5]; rate 0.0620 kg/ha): 4.0
Preemergence herbicidal rating IPOHE ([6]; Rate 0.0620 kg/ha): 0.5
Preemergence herbicidal rating IPOHE ([6]; Rate 0.1250 kg/ha): 2.0
Preemergence herbicidal rating IPOHE ([6]; Rate 0.2500 kg/ha): 4.0
Preemergence herbicidal rating GLXMAW ([7]; Rate 0.0620 kg/ha): 0.5
Preemergence herbicidal rating GLXMAW ([7]; Rate 0.1250 kg/ha): 0.5
Preemergence herbicidal rating GLXMAW ([7]; Rate 0.2500 kg/ha): 6.0
Preemergence herbicidal rating ZEAMX ([8]; Rate 0.0620 kg/ha): 0.5
Preemergence herbicidal rating ZEAMX ([8]; Rate 0.1250 kg/ha): 1.5
Preemergence herbicidal rating ZEAMX ([8]; Rate 0.2500 kg/ha): 2.5
herbicidal rating, CYPIR ([9]; rate 0.0080 kg/ha): 0.0
herbicidal rating, CYPIR ([9]; rate 0.0320 kg/ha): 4.5
herbicidal rating, CYPIR ([9]; rate 0.1250 kg/ha): 9.0
herbicidal rating, SAGPY ([10]; rate 0.0080 kg/ha): 0.0
herbicidal rating, SAGPY ([10]; rate 0.0320 kg/ha): 4.5
herbicidal rating, SAGPY ([10]; rate 0.1250 kg/ha): 7.0
herbicidal rating, ORYSAT (rice tolerance) ([11]; rate 0.0080 kg/ha): 2.5
herbicidal rating, ORYSAT (rice tolerance) ([11]; rate 0.0320 kg/ha): 5.5
herbicidal rating, ORYSAT (rice tolerance) ([11]; rate 0.1250 kg/ha): 8.0

Cn1c(C(F)(F)F)cc(=O)n(-c2ccc3snc(-c4ccoc4)c3c2)c1=O [Compound 83, 3-[3-(3-furyl)-1,2-benzisothiazol-5-yl]-1-methyl-6-(trifluoromethyl)uracil]
ABUTH herbicidal rating ([1]; rate 0.0320 kg/ha): 6.0
ABUTH herbicidal rating ([1]; rate 0.0620 kg/ha): 9.0
AMBEL herbicidal rating ([2]; rate 0.0320 kg/ha): 2.0
AMBEL herbicidal rating ([2]; rate 0.0620 kg/ha): 6.0
CASOB herbicidal rating ([3]; rate 0.0320 kg/ha): 4.0
CASOB herbicidal rating ([3]; rate 0.0620 kg/ha): 6.0
CHEAL herbicidal rating ([4]; rate 0.0320 kg/ha): 3.0
CHEAL herbicidal rating ([4]; rate 0.0620 kg/ha): 6.0
GALAP herbicidal rating ([5]; rate 0.0320 kg/ha): 2.0
GALAP herbicidal rating ([5]; rate 0.0620 kg/ha): 3.0
Preemergence herbicidal rating IPOHE [6, 12]: 3.0
Preemergence herbicidal rating IPOHE [6, 13]: 5.0
Preemergence herbicidal rating IPOHE [6, 14]: 5.5
Preemergence herbicidal rating GLXMAW [7, 12]: 0.0
Preemergence herbicidal rating GLXMAW [7, 13]: 2.5
Preemergence herbicidal rating GLXMAW [7, 14]: 6.0
Preemergence herbicidal rating ZEAMX [8, 12]: 3.0
Preemergence herbicidal rating ZEAMX [8, 13]: 5.0
Preemergence herbicidal rating ZEAMX [8, 14]: 6.0
herbicidal rating, CYPIR ([9]; rate 0.0080 kg/ha): 0.0
herbicidal rating, CYPIR ([9]; rate 0.0320 kg/ha): 0.0
herbicidal rating, CYPIR ([9]; rate 0.1250 kg/ha): 3.0
herbicidal rating, SAGPY ([10]; rate 0.0080 kg/ha): 0.0
herbicidal rating, SAGPY ([10]; rate 0.0320 kg/ha): 0.0
herbicidal rating, SAGPY ([10]; rate 0.1250 kg/ha): 0.0
herbicidal rating, ORYSAT (rice tolerance) ([11]; rate 0.0080 kg/ha): 0.0
herbicidal rating, ORYSAT (rice tolerance) ([11]; rate 0.0320 kg/ha): 2.0
herbicidal rating, ORYSAT (rice tolerance) ([11]; rate 0.1250 kg/ha): 2.0

Cn1c(C(F)(F)F)cc(=O)n(-c2ccc3snc(-c4sccc4CO)c3c2)c1=O [Compound 85, 3-[3-[3-(hydroxymethyl)-2-thienyl]-1,2-benzisothiazol-5-yl]-1-methyl-6-(trifluoromethyl)uracil]
ABUTH herbicidal rating ([1]; rate 0.0320 kg/ha): 9.0
ABUTH herbicidal rating ([1]; rate 0.0620 kg/ha): 9.0
AMBEL herbicidal rating ([2]; rate 0.0320 kg/ha): 5.0
AMBEL herbicidal rating ([2]; rate 0.0620 kg/ha): 9.0
CASOB herbicidal rating ([3]; rate 0.0320 kg/ha): 4.0
CASOB herbicidal rating ([3]; rate 0.0620 kg/ha): 4.0
CHEAL herbicidal rating ([4]; rate 0.0320 kg/ha): 9.0
CHEAL herbicidal rating ([4]; rate 0.0620 kg/ha): 9.0
GALAP herbicidal rating ([5]; rate 0.0320 kg/ha): 4.0
GALAP herbicidal rating ([5]; rate 0.0620 kg/ha): 6.0
Preemergence herbicidal rating IPOHE [6, 12]: 0.0
Preemergence herbicidal rating IPOHE [6, 13]: 4.0
Preemergence herbicidal rating IPOHE [6, 14]: 7.0
Preemergence herbicidal rating GLXMAW [7, 12]: 0.0
Preemergence herbicidal rating GLXMAW [7, 13]: 3.0
Preemergence herbicidal rating GLXMAW [7, 14]: 9.0
Preemergence herbicidal rating ZEAMX [8, 12]: 0.0
Preemergence herbicidal rating ZEAMX [8, 13]: 3.0
Preemergence herbicidal rating ZEAMX [8, 14]: 3.0
CYPIR herbicidal rating ([9]; rate 0.0080 kg/ha): 0.0
CYPIR herbicidal rating ([9]; rate 0.0320 kg/ha): 0.0
herbicidal rating, CYPIR ([9]; rate 0.1250 kg/ha): 6.0
SAGPY herbicidal rating ([10]; rate 0.0080 kg/ha): 0.0
SAGPY herbicidal rating ([10]; rate 0.0320 kg/ha): 1.5
herbicidal rating, SAGPY ([10]; rate 0.1250 kg/ha): 7.0
ORYSAT herbicidal rating (transplanted rice tolerance) ([11]; rate 0.0080 kg/ha): 0.0
ORYSAT herbicidal rating (transplanted rice tolerance) ([11]; rate 0.0320 kg/ha): 1.5
herbicidal rating, ORYSAT (rice tolerance) ([11]; rate 0.1250 kg/ha): 5.5
